Measurements published in patent publication US10675267B2, “Methods for detection and eradication of myeloid leukemia stem cells” (priority 2015, dated 2020).
Entries after “also recorded” stand apart in the source; their conditions may differ.

Assays:
[1] = system: MOLM-13 cells; experiment: In vitro splicing of endogenous transcripts (qRT-PCR, RT-PCR) in MOLM-13; format: cell-based
Protocol: (§1) For qRT-PCR analysis of relative total mRNA expression levels or splice isoform-specific expression analyses, cDNA was synthesized using 50 ng-1 […] of template RNA in 20 μL reaction volumes using the First-Strand SUPERSCRIPT™ III Reverse Transcriptase Supermix (Life Technologies) followed by incubation with RNase H according to the manufacturer's protocol and as described previously. All cDNA products were stored at −20° C. Splice isoform-specific primers for PTK2B-202 were designed to bind to unique exon junctions for this transcript, which lacks exon 24. All primers (Table 2) were diluted to 10 μM working dilutions in DNase/RNase-free water. qRT-PCR was performed in duplicate using cDNA (1 μL reverse transcription product per reaction) on an iCycler (Bio-Rad, Hercules, Calif.) using SYBR® GREENER™ Super Mix (Life Technologies) in 25-μL volume reactions containing 0.2 μM of each forward and reverse primer. Cycling conditions were as follows: 50° C. for 2 minutes, then 95° C. for 8 minutes and 30 seconds, followed by 40 cycles of 95° C. for 15 seconds and 60° C. for 60 seconds. Melting curve analysis was performed on each plate according to the manufacturer's instructions. For standard qRT-PCR, human HPRT mRNA transcript levels were used to normalize Ct values obtained for each gene, and relative expression levels were calculated using the 2^−ddCt method. To ensure validity of results, only Ct values <35 were used in gene expression analyses. All primer sets were tested in a no-template control (NTC) reaction containing only water instead of cDNA, and all gave Ct values >35 in NTC reactions.
For evaluation of in vitro splicing activity of endogenous transcripts in HEK293 or a sAML cell line, MOLM-13 (mycoplasma-free and cytogenetically-authenticated cell lines obtained from DMSZ), cells were plated in complete media (DMEM containing 10% FBS for HEK293 and RPMI containing 20% FBS for MOLM-13). The next day, FD-895, 17S-FD-895 or DMSO vehicle controls were added at doses ranging from 0.01-10 μM for 4 hrs of treatment. Cells were lysed in RLT buffer (Qiagen) and processed for RNA extraction and subsequent PCR analyses using primers specific for DNAJB1 or MCL1 (Table 2). For all experiments in cell line, cells obtained from the vendors were frozen down in bulk at low passage numbers and used within 20 passages to minimize risk of cell line misidentification or acquisition of additional chromosomal abnormalities.
(§2) For qRT-PCR analysis of relative total mRNA expression levels or splice isoform-specific expression analyses, cDNA was synthesized using 50 ng-1 […] reaction volumes using the First-Strand SUPERSCRIPT™ III Reverse Transcriptase Supermix (Life Technologies) followed by incubation with RNase H according to the manufacturer's protocol and as described previously (Abrahamsson et al., 2009; Crews et al., 2015). All cDNA products were stored at −20° C. Splice isoform-specific primers for PTK2B-202 were designed to bind to unique exon junctions for this transcript, which lacks exon 24. All primers (Supplemental Experimental Procedures Table) were diluted to 10 ∝M working dilutions in DNase/RNase-free water. qRT-PCR was performed in duplicate using cDNA (1 ∝Λ reverse transcription product per reaction) on an iCycler (Bio-Rad, Hercules, Calif.) using SYBR® GREENER™ Super Mix (Life Technologies) in 25-∝A volume reactions containing 0.2 ∝M of each forward and reverse primer. Cycling conditions were as follows: 50° C. for 2 minutes, then 95° C. for 8 minutes and 30 seconds, followed by 40 cycles of 95° C. for 15 seconds and 60° C. for 60 seconds. Melting curve analysis was performed on each plate according to the manufacturer's instructions. For standard qRT-PCR, human HPRT mRNA transcript levels were used to normalize Ct values obtained for each gene, and relative expression levels were calculated using the 2-ddCt method. To ensure validity of results, only Ct values <35 were used in gene expression analyses. […]

[2] = system: human CD34+ cells from treated mice (DNAJB1, MCL1, BCL2, BCLX, SF3B1 transcripts); experiment: qRT-PCR / RT-PCR of in vivo splicing alterations in CD34-selected human cells from treated AML PRIMAGRAFT mice
Protocol: For in vivo treatments, a 10 mg/mL stock solution of 17S-FD-895 solubilized in DMSO was used. After randomization, AML-engrafted mice were dosed intravenously with 17S-FD-895 (5-10 mg/kg) or vehicle (for AML-08, vehicle control=15% DMSO in PBS; for AML-37, vehicle control=20% DMSO in PBS) three times over a two-week period, with the first dose given on day 1, the second on day 7, and the third on day 14. For preparation of RNA from human LSC-enriched populations, single cell suspensions from spleen and bone marrow were CD34 double-selected (over two LS selection columns, Miltenyi) and 1-2×10^5 cells were collected in lysis buffer or pooled according to treatment group for serial transplantation assays.
as §1
The 17S-FD-895 dosing regimen was selected as the maximum number of doses possible for the treatment of three experimental groups with the amount of synthesized compound that was available, and is consistent with weekly IV dosing regimens used in clinical trials of spliceosome inhibitory compounds in patients with solid tumors. Animals were euthanized within two hours after delivery of the final dose of 17S-FD-895, and peripheral blood, spleens and bone marrows were collected for analysis of total human cell and stem and progenitor cell engraftment, and for RNA extraction for splice isoform-specific qRT-PCR.
as §2, with “primer.” for “primer. Cycling conditions were as follows: 50° C. for 2 minutes, then 95° C. for 8 minutes and 30 seconds, followed by 40 cycles of 95° C. for 15 seconds and 60° C. for 60 seconds. Melting curve analysis was performed on each plate according to the manufacturer's instructions. For standard qRT-PCR, human HPRT mRNA transcript levels were used to normalize Ct values obtained for each gene, and relative expression levels were calculated using the 2-ddCt method. To ensure validity of results, only Ct values <35 were used in gene expression analyses.”

[3] = CD34+ cells of individual treated mice versus vehicle
[4] = pooled CD34+ cells used for serial transplantation

SMILES: CC[C@H](OC)[C@@H](C)[C@H]1O[C@@H]1[C@@H](O)[C@H](C)/C=C/C=C(\C)[C@H]1OC(=O)C[C@H](O)CC[C@@](C)(O)[C@@H](OC(C)=O)/C=C/[C@@H]1C (stereo in doubt) [Formula 17S-FD-895, 17S-FD-895]
- EC50 of the 1 μM treatment condition (time course of DNAJB1 intron 2 retention) ([1]; MOLM-13, 1 μM, 30 mins-24 hrs, qRT-PCR, 95% C.I.): 3.2 to 6.5 h
- MCL1-S expression (qRT-PCR) ([1]; MOLM-13, 0.01-10 μM, 4 hrs): low doses of 17S-FD-895 increased MCL1-S expression, this effect was reversed at high doses
- PTK2B-202 expression (isoform-specific qRT-PCR) ([1]; MOLM-13, short-term treatment): reduced expression
- time at which the increase in DNAJB1 intron 2 levels occurred after initiation of treatment ([1]; MOLM-13 sAML cells): 30 min
- DNAJB1 intron 2 retention ([1]; MOLM-13 sAML cells, 0.01-10 μM 4 hrs, time course 30 mins-24 hrs): rapid and dose-dependent increase; also recorded: time- and dose-dependent increase
- MCL1 splicing pattern (RT-PCR, primers flanking exon 2) ([1]; MOLM-13 versus HEK293, 4 hrs): triggered MCL1 exon 2 skipping; also recorded: increased intron retention predominantly in sAML cells (MOLM-13)
- BCL2L1-L/S expression ratio ([2]; CD34+ cells of individual treated mice versus control): significant reduction
- BCL2-L/S expression ratio [2, 3]: significant reduction
- MCL1-L/S expression ratio [2, 3]: significant reduction
- SF3B1 mRNA expression ([2]; after treatment, individual mice and pooled samples): unchanged
- DNAJB1 intron 2 expression / retention ([2]; human CD34+ cells from treated mice versus vehicle): increased DNAJB1 intron 2 expression; also recorded: increased DNAJB1 intron 2 retention
- MCL1-L/S expression ratios, pooled cells [2, 4]: dramatically reduced; also recorded: significantly reduced
- MCL1 exon 1-3 splicing pattern (RT-PCR) [2, 4]: MCL1 exon skipping and intron inclusion
